Test results taken from ChEMBL document CHEMBL3885881, “DrugMatrix”.

Species: Rattus norvegicus
Experiment: DrugMatrix - Regimen: Daily Repeat
Type: toxicity, organism-based, Sprague-Dawley
Parameters: regimen Daily Repeat, gender Male, age 6-8 weeks
Settings: in vivo, iv, vehicle 100 % SALINE; for ABSOLUTE BASOPHIL / ABSOLUTE EOSINOPHIL / ABSOLUTE LYMPHOCYTE / ABSOLUTE MONOCYTE / ABSOLUTE SEGMENTED NEUTROPHIL / BASOPHIL / EOSINOPHIL / ERYTHROCYTE COUNT / HEMATOCRIT / HEMOGLOBIN / LEUKOCYTE COUNT / LYMPHOCYTE / MEAN CORPUSCULAR HEMOGLOBIN / MEAN CORPUSCULAR HEMOGLOBIN CONCENTRATION / MEAN CORPUSCULAR VOLUME / MONOCYTE / NEUTROPHIL / NUCLEATED RED BLOOD CELLS / PLATELET COUNT: tissue Blood; for ALANINE AMINOTRANSFERASE / ALBUMIN / ALKALINE PHOSPHATASE / ASPARTATE AMINOTRANSFERASE / BLOOD UREA NITROGEN / CARBON DIOXIDE / CHLORIDE / CHOLESTEROL / CREATINE PHOSPHOKINASE / CREATININE / GLUCOSE / LACTATE DEHYDROGENASE / LIPASE / PHOSPHORUS / POTASSIUM / SODIUM / TOTAL BILIRUBIN / TOTAL PROTEIN / URIC ACID: tissue Plasma
[1] = 0 mg/kg, 72 h, dose level Control, time 3 day
[2] = 0 mg/kg, 120 h, dose level Control, time 5 day
[3] = 7 mg/kg, 72 h, dose level Low, time 3 day

CC(=O)N[C@@H]1[C@H](Oc2c3cc4cc2Oc2ccc(cc2Cl)[C@@H](O[C@@H]2O[C@@H](CO)[C@@H](O)[C@H](O)[C@@H]2NC(C)=O)[C@@H]2NC(=O)[C@H](NC(=O)[C@@H]4NC(=O)[C@H]4NC(=O)[C@@H](Cc5ccc(c(Cl)c5)O3)NC(=O)[C@H](N)c3ccc(O)c(c3)Oc3cc(O)cc4c3)c3ccc(O)c(c3)-c3c(O[C@H]4O[C@H](CO)[C@@H](O)[C@@H](O)[C@@H]4O)cc(O)cc3[C@@H](C(=O)O)NC2=O)O[C@@H](CO)[C@@H](O)[C@@H]1O
ABSOLUTE BASOPHIL [1]: 0 CELLS/uL
ABSOLUTE EOSINOPHIL [1]: 193.5 CELLS/uL
ABSOLUTE LYMPHOCYTE [1]: 15717.5 CELLS/uL
ABSOLUTE MONOCYTE [1]: 389.33 CELLS/uL
ABSOLUTE SEGMENTED NEUTROPHIL [1]: 1883 CELLS/uL
BASOPHIL [1]: 0%
EOSINOPHIL [1]: 1.17%
ERYTHROCYTE COUNT [1]: 5.68 x10E6/uL
HEMATOCRIT [1]: 35.83%
HEMOGLOBIN [1]: 13.48 G/DL
LEUKOCYTE COUNT [1]: 18.18 x10E3/uL
LYMPHOCYTE [1]: 86.67%
MEAN CORPUSCULAR HEMOGLOBIN [1]: 23.8 pg
MEAN CORPUSCULAR HEMOGLOBIN CONCENTRATION [1]: 37.68 G/DL
MEAN CORPUSCULAR VOLUME [1]: 63.27 fL
MONOCYTE [1]: 2.17%
NEUTROPHIL [1]: 10%
NUCLEATED RED BLOOD CELLS [1]: 0 /100WBC
PLATELET COUNT [1]: 1186.33 x10E3/uL
ALANINE AMINOTRANSFERASE [1]: 68.5 u/L
ALBUMIN [1]: 4.37 G/DL
ALKALINE PHOSPHATASE [1]: 396.33 u/L
ASPARTATE AMINOTRANSFERASE [1]: 92.5 u/L
BLOOD UREA NITROGEN [1]: 18 mg/dL
CARBON DIOXIDE [1]: 24.33 mmol/L
CHLORIDE [1]: 102.4 MEQ/L
CHOLESTEROL [1]: 67.17 mg/dL
CREATINE PHOSPHOKINASE [1]: 378.67 u/L
CREATININE [1]: 0.19 mg/dL
GLUCOSE [1]: 178.33 mg/dL
LACTATE DEHYDROGENASE [1]: 245.17 u/L
LIPASE [1]: 9.2 u/L
PHOSPHORUS [1]: 12.37 mg/dL
POTASSIUM [1]: 6.48 MEQ/L
SODIUM [1]: 143.28 MEQ/L
TOTAL BILIRUBIN [1]: 0.23 mg/dL
TOTAL PROTEIN [1]: 5.65 G/DL
URIC ACID [1]: 1.6 mg/dL
ABSOLUTE BASOPHIL [2]: 0 CELLS/uL
ABSOLUTE EOSINOPHIL [2]: 27.5 CELLS/uL
ABSOLUTE LYMPHOCYTE [2]: 13593.17 CELLS/uL
ABSOLUTE MONOCYTE [2]: 576 CELLS/uL
ABSOLUTE SEGMENTED NEUTROPHIL [2]: 1836.67 CELLS/uL
BASOPHIL [2]: 0%
EOSINOPHIL [2]: 0.17%
ERYTHROCYTE COUNT [2]: 5.99 x10E6/uL
HEMATOCRIT [2]: 37.42%
HEMOGLOBIN [2]: 13.78 G/DL
LEUKOCYTE COUNT [2]: 16.03 x10E3/uL
LYMPHOCYTE [2]: 85.17%
MEAN CORPUSCULAR HEMOGLOBIN [2]: 23.08 pg
MEAN CORPUSCULAR HEMOGLOBIN CONCENTRATION [2]: 36.83 G/DL
MEAN CORPUSCULAR VOLUME [2]: 62.6 fL
MONOCYTE [2]: 3.5%
NEUTROPHIL [2]: 11.17%
NUCLEATED RED BLOOD CELLS [2]: 0 /100WBC
PLATELET COUNT [2]: 1352.5 x10E3/uL
ALANINE AMINOTRANSFERASE [2]: 49.83 u/L
ALBUMIN [2]: 4.25 G/DL
ALKALINE PHOSPHATASE [2]: 331.33 u/L
ASPARTATE AMINOTRANSFERASE [2]: 86.17 u/L
BLOOD UREA NITROGEN [2]: 19.5 mg/dL
CARBON DIOXIDE [2]: 26.67 mmol/L
CHLORIDE [2]: 103 MEQ/L
CHOLESTEROL [2]: 67.5 mg/dL
CREATINE PHOSPHOKINASE [2]: 346.17 u/L
CREATININE [2]: 0.22 mg/dL
GLUCOSE [2]: 170.67 mg/dL
LACTATE DEHYDROGENASE [2]: 405.5 u/L
LIPASE [2]: 8.83 u/L
PHOSPHORUS [2]: 11.3 mg/dL
POTASSIUM [2]: 6.06 MEQ/L
SODIUM [2]: 143.4 MEQ/L
TOTAL BILIRUBIN [2]: 0.17 mg/dL
TOTAL PROTEIN [2]: 6.22 G/DL
URIC ACID [2]: 1.63 mg/dL
ABSOLUTE BASOPHIL [3]: 0 CELLS/uL
ABSOLUTE EOSINOPHIL [3]: 340.67 CELLS/uL
ABSOLUTE LYMPHOCYTE [3]: 16096 CELLS/uL
ABSOLUTE MONOCYTE [3]: 460.67 CELLS/uL
ABSOLUTE SEGMENTED NEUTROPHIL [3]: 1602.67 CELLS/uL
BASOPHIL [3]: 0%
EOSINOPHIL [3]: 1.67%
ERYTHROCYTE COUNT [3]: 5.86 x10E6/uL
HEMATOCRIT [3]: 37.6%
HEMOGLOBIN [3]: 14.23 G/DL
LEUKOCYTE COUNT [3]: 18.5 x10E3/uL
LYMPHOCYTE [3]: 87%
MEAN CORPUSCULAR HEMOGLOBIN [3]: 24.27 pg
MEAN CORPUSCULAR HEMOGLOBIN CONCENTRATION [3]: 37.87 G/DL
MEAN CORPUSCULAR VOLUME [3]: 64.13 fL
MONOCYTE [3]: 2.67%
NEUTROPHIL [3]: 8.67%
NUCLEATED RED BLOOD CELLS [3]: 0 /100WBC
PLATELET COUNT [3]: 1212.33 x10E3/uL
ALANINE AMINOTRANSFERASE [3]: 48 u/L
ALBUMIN [3]: 5.03 G/DL
ALKALINE PHOSPHATASE [3]: 341.33 u/L
ASPARTATE AMINOTRANSFERASE [3]: 90.67 u/L
BLOOD UREA NITROGEN [3]: 21.33 mg/dL
CARBON DIOXIDE [3]: 21.67 mmol/L
CHLORIDE [3]: 98.33 MEQ/L
CHOLESTEROL [3]: 73.33 mg/dL
CREATINE PHOSPHOKINASE [3]: 336 u/L
CREATININE [3]: 0.27 mg/dL
GLUCOSE [3]: 149 mg/dL
LACTATE DEHYDROGENASE [3]: 410.67 u/L
LIPASE [3]: 10 u/L
PHOSPHORUS [3]: 11.57 mg/dL
POTASSIUM [3]: 7.21 MEQ/L
SODIUM [3]: 141.2 MEQ/L
TOTAL BILIRUBIN [3]: 0.27 mg/dL
TOTAL PROTEIN [3]: 6.07 G/DL
URIC ACID [3]: 2.23 mg/dL
